Results: patent US20110182946A1, “Formation of Nanostructured Particles of Poorly Water Soluble Drugs and Recovery by Mechanical Techniques” (BOARD OF REGENTS, THE UNIVERSITY OF TEXAS SYSTEM, priority 2008, published 2011)
Converted amounts (≈) assume the structure as drawn.

What was measured:
[1] = Equilibrium solubility of crystalline ITZ; format: physicochemical; details: thermodynamic from solid
[2] = pH 6.8 buffer without addition of 0.17% SDS; cited from earlier work

For `CCC(C)n1ncn(-c2ccc(N3CCN(c4ccc(OCC5COC(Cn6cncn6)(c6ccc(Cl)cc6Cl)O5)cc4)CC3)cc2)c1=O` (stereo not drawn) [ITZ, itraconazole], the solubility thermodynamic ([1]; acidic media, pH 1.2, simulated gastric fluid) is listed as 4.4 µg/mL (≈ 6.24 µM), the solubility at 18 h ([1]; pH 6.8 phosphate buffer with 0.17% SDS, aqueous with cosolvent or surfactant or cyclodextrin, pH 6.8 media with 0.17% SDS, 37.2° C.) is listed as 14 µg/mL (≈ 19.8 µM) and the equilibrium solubility [2] is listed as “about 1 ng/mL”.
